Data as given in ChEMBL document CHEMBL1132360, “N-Substituted (2,3-dihydro-1,4-benzodioxin-2-yl)methylamine derivatives as D(2) antagonists/5-HT(1A) partial agonists with potential as atypical antipsychotic agents” (J Med Chem, 1999).

Molecular target: 5-hydroxytryptamine receptor 3A (Rattus norvegicus) (UniProt P35563)
Experiment: The compound was tested for binding affinity against 5-hydroxytryptamine 3 receptor

Chain of 5-hydroxytryptamine receptor 3A (Rattus norvegicus) (P35563 whole entry, looked up): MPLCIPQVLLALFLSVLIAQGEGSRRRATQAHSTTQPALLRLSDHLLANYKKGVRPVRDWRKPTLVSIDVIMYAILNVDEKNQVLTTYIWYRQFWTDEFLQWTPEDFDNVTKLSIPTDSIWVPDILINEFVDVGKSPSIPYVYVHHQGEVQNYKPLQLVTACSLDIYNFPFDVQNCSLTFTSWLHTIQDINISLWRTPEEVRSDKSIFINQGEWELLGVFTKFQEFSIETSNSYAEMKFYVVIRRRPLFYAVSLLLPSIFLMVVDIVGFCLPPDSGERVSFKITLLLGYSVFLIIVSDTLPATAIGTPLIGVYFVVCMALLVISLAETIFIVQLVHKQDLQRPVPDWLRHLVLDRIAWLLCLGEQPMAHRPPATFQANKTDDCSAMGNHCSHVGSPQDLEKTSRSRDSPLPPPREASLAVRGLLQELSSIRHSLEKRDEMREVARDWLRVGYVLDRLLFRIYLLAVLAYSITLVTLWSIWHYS

With `COc1ccccc1N1CCC(CNCC2COc3ccc(Cl)cc3O2)CC1` (stereo unspecified) the Ki was greater than 1 µM.
